Data as given in patent publication US20060217405A1, “Interstitial cystitis treatment” (Indevus Pharmaceuticals, Inc., priority 2005, published 2006).

Experiments:
[1] = system: interstitial cystitis patients; details: bladder instillation; cited from earlier work
animals = details: animal studies; cited from earlier work
bladder afferent nerves = experiment: Intravesical trospium and carbachol experiments; assay type: in vivo; details: for direct effect on interstitial cystitis: trospium at low dose
Description: The action of trospium is unique because it has selective activity on the bladder urothelium and bladder afferent nerves. The local trospium bladder effect is on the afferent nerve rather than bladder smooth muscle. The effect of intravesical administered trospium was not blocked by pre treatment of capsaicin or resiniferatoxin. This indicates the afferent nerve effect is that of A-delta and not C-fibers.

female SD rats = experiment: Cystometrogram (CMG) in anesthetized rats after intravesical instillation; assay type: in vivo, rat; details: 0.5 mcg/ml, approx. 5 ml intravesical, 10-30 minutes, urethane anesthesia
Method: Baseline cystometrogram (CMG) is measured in a group of 6 female SD rats (250 grams). The rats are anesthetized utilizing urethane anesthesia at a rate of 1.2 g/kg. Trospium chloride at a concentration of 0.5 mcg/ml is administered by intravesical instillation. Approximately, 5 ml are instilled. The trospium solution is maintained in the rat bladder for a period of 10-30 minutes. At the end of that period the solution is expelled and the CMG measured.

human subject = experiment: Intravesical instillation of trospium chloride in human female subjects; assay type: in vivo; details: 0.5 mcg/ml twice daily intravesical
Method: A human subject, and weighing approximately 70 kg, presents with a sense of urgency and frequency to urinate, although they are not incontinent. The subject experiences pain and other pelvic discomfort, however, while attempting to urinate. Trospium chloride at a concentration of 0.5 mcg/ml is administered twice daily by intravesical instillation to the subject for a total dose of 2.0 mg trospium chloride per day. The dosing regimen is continued for six (6) weeks.
A human subject, and weighing approximately 60 kg, presents with incontinence. Trospium chloride at a concentration of 0.5 mcg/ml is administered twice daily by intravesical instillation to the subject for a total dose of 1.6 mg trospium chloride per day. The dosing regimen is continued for eight (8) months.

patients = experiment: Intravesicular instillation of trospium chloride in patients; assay type: in vivo, human
Description: Trospium chloride is a quaternary ammonium compound that concentrates in the urine primarily unchanged and is believed to have local antispasmodic activity. […] Therefore the use of trospium, especially by intravesicular instillation, is a novel treatment for interstitial cystitis with the very low potential for systemic side effects.

[2] = cited from earlier work
[3] = system: interstitial cystitis patients; details: cited from earlier work

## C[S+](C)[O-] [DMSO, dimethyl sulfoxide]
[1]
  average duration of significant pain relief: about 10 months
  duration of garlic-like taste and odor on the breath and skin after treatment: up to 72 hours
  patients experiencing significant pain relief: About 50%
animals
  side effect of long-term treatment: cataracts

## C[N+](C)(C)CCOC(N)=O [carbachol]
Bladder afferent nerves; intravesical
  direct effect on interstitial cystitis: decreased

## O=C(O[C@H]1C[C@H]2CC[C@@H](C1)[N+]21CCCC1)C(O)(c1ccccc1)c1ccccc1 [trospium chloride]
Bladder afferent nerves; intravesical
  effect of intravesical trospium after pre treatment of capsaicin or resiniferatoxin: not blocked
  direct effect on interstitial cystitis: no direct effect
Bladder afferent nerves; low dose of trospium
  effect on the inhibitory effect of carbachol: completely blocked
Female SD rats
  acetic-acid induced bladder overactivity: significantly suppressed
  bladder contractions during voiding: without affecting
Human subject; 1.6 mg per day, eight months, incontinence
  urge, frequency and incontinence episodes: significant reduction
Human subject; 2.0 mg per day, six weeks, urgency, frequency, pain
  pain when attempting to urinate: no longer experiences pain
patients
  absorption into the systemic circulation: little or no absorption
[2]; in vivo
  metabolism: minimally metabolized
  protein binding: not highly protein-bound
[2]; oral 20 mg tablets
  plasma half-life: about 20 hrs
[2]; oral
  excreted through the feces: 85.2%
  excreted through urine (tubular secretion): 5.8%
  recognized side effects: dry mouth, constipation, headache urinary retention and dry eyes

## pentosan polysulfate sodium
[3]; oral Elmiron
  side effects: primarily gastrointestinal discomfort, although some patients experienced hair loss
[3]; oral, clinical trials, interstitial cystitis
  patients treated whose symptoms improved: 38%
